From patent US9518050B2, “Cyclohexyl and quinuclidinyl carbamate derivatives having β2 adrenergic agonist and M3 muscarinic antagonist activity” (priority 2012, dated 2016) come the findings set out here.

In general, IC50 refers to the concentration at which inhibition is half-maximal.

For assay [1], the target named is T1, human muscarinic M3 receptor (Homo sapiens, UniProt P20309).
T1 construct: purchased Perkin Elmer; host or cells: CHO-K1 cells (membranes)
Description: Human muscarinic M3 receptor binding assay ([3H]-NMS, CHO-K1 cell membranes). Particulars: 1 nM [3H]-NMS, CHO-K1 membranes 4.9 μg/well, two hours incubation; read-out: Binding, IC50, nM M3. Here is the method:
Test 2: Human Muscarinic M1, M2, M3, M4 and M5 Receptors Binding Assays
The study of binding to human muscarinic M1, M2, M3, M4 and M5 receptors was performed using commercial membranes (Perkin Elmer) prepared from CHO-K1 cells. Radioligand binding experiments were conducted in 96 polypropylene well plates in a total volume of 200 μl. All reagents were dissolved in assay binding buffer (PBS with calcium and magnesium, SIGMA), except compounds that were dissolved in DMSO 100%. Non-specific binding (NSB) was measured in the presence of 1 μM atropine. [3H]-NMS was used as the radioligand at a concentration of 1 nM for M2, M3 and M5 and 0.3 nM for M1 and M4. [3H]-NMS and antagonists were incubated with membranes that express human muscarinic receptors M1, M2, M3, M4 and M5 at concentrations of 8.1, 10, 4.9, 4.5 and 4.9 μg/well, respectively.
After an incubation period of two hours with gentle shaking, 150 μl of the reaction mix were transferred to 96 GF/C filter plates (Millipore), previously treated with wash buffer (Tris 50 mM; NaCl 100 mM; pH:7.4), containing 0.05% PEI (Sigma) during one hour. Bound and free [3H]-NMS were separated by rapid vacuum filtration in a manifold from Millipore and washed four times with ice cold wash buffer. After drying 30 min, 30 μl of OPTIPHASE Supermix were added to each well and radioactivity quantified using a Microbeta microplate scintillation counter.
The affinity of each test compound to the receptors was determined by using ten different concentrations ran in duplicate. IC50s were calculated using Activity Base software from IDBS and the four parameters-log equation.

The target in assay [2] is T2, human adrenergic beta2 receptor (Homo sapiens, UniProt P07550).
T2 construct: purchased Perkin Elmer; host or cells: Sf9 cells (overexpressed; membranes)
Description: Human adrenergic β2 receptor binding assay (3H-CGP12177, Sf9 cell membranes). Particulars: 0.6 nM 3H-CGP12177, Sf9 membranes 5 μg/well, 60 min room temperature; read-out: Binding, IC50, nM β2. The procedure:
Typically said beta2-adrenergic binding assay comprises: • a) providing a membrane suspension comprising Sf9 cells in an assay buffer • b) incubating with 3H-CGP12177 in plates previously treated with assay buffer containing a coating agent • c) measuring binding of test compound in the presence of propanolol • d) maintaining incubation • e) terminating the binding reactions • f) determining the affinity of the test compound for the receptor by repeating steps a) to e) using multiple different test compound concentrations. • g) calculating an IC50 using the four parameters-log equation.
Test 1: Human Adrenergic β1 and β2 Receptor Binding Assays
The study of binding to human adrenergic beta1 and beta2 receptors was performed using commercial membranes prepared from Sf9 cells where they are overexpressed (Perkin Elmer). The membrane suspensions (16 μg/well for beta1 and 5 μg/well for beta2) in assay buffer (75 mM Tris/HCl with 12.5 mM MgCl2 and 2 mM EDTA pH=7.4) were incubated with 0.14 or 0.6 nM of 3H-CGP12177 (Amersham) for beta 1 and beta 2 receptors respectively in a final volume of 250 μl, in GFC Multiscreen 96 well plates (Millipore) previously treated with assay buffer containing 0.3% PEI (Sigma). Non specific binding was measured in the presence of 1 μM propanolol. Incubation was maintained for 60 minutes at room temperature and with gentle shaking. The binding reactions were terminated by filtration and washing with 2.5 volumes of Tris/HCl 50 mM pH=7.4. The affinity of each test compound to the receptor was determined by using ten different concentrations ran in duplicate. IC50s were calculated using Activity Base software from IDBS and the four parameters-log equation.

T1 sequence (P20309 whole entry): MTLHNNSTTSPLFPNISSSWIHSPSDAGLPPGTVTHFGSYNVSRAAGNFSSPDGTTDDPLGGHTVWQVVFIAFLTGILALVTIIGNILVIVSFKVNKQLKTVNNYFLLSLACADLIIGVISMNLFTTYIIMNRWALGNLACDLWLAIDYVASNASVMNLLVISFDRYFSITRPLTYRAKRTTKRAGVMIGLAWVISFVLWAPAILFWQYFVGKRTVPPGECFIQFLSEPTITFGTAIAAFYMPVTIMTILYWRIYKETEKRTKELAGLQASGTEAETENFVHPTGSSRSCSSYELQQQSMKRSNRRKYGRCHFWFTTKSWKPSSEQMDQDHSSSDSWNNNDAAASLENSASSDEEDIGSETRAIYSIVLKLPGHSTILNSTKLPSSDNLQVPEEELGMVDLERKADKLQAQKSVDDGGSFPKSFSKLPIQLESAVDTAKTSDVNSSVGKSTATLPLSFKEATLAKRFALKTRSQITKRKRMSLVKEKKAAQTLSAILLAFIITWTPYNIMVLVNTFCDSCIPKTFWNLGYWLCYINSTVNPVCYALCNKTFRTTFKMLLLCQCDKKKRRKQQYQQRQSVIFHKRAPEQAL

Take “(3R)-1-azabicyclo[2.2.2]oct-3-yl(4-{5-[6-({[(2R)-2-hydroxy-2-(8-hydroxy-2-oxo-1,2-dihydroquinolin-5-yl)ethyl]amino}methyl)-2-oxo-1,3-benzoxazol-3(2H)-yl]pentyl}biphenyl-2-yl)carbamate dihydrofluoride [Example 31]”: the IC50 was determined as 0.3 nM in assay [1] and 19 nM in assay [2].
“(3R)-1-azabicyclo[2.2.2]oct-3-yl(5-{4-[4-(2-{[(2R)-2-hydroxy-2-(8-hydroxy-2-oxo-1,2-dihydroquinolin-5-yl)ethyl]amino}ethyl)phenoxy]butyl}biphenyl-2-yl)carbamate dihydrofluoride [Example 21]”: the results for the IC50 in assay [1] and in assay [2] were 1.2 nM and 1.3 nM, respectively.
On to “trans-4-[methyl(3-phenylpropyl)amino]cyclohexyl[4-(4-{[4-({[(2R)-2-hydroxy-2-(8-hydroxy-2-oxo-1,2-dihydroquinolin-5-yl)ethyl]amino}methyl)phenyl]amino}-4-oxobutyl)biphenyl-2-yl]carbamate dihydrofluoride [Example 40]”, for which the values for the half-maximal inhibitory concentration (IC50) in assay [1] and in assay [2] were 0.78 nM and 2 nM, respectively.
Taken in the same sequence, the figures for “trans-4-aminocyclohexyl(4-{2-[({[2-chloro-4-({[(2R)-2-hydroxy-2-(8-hydroxy-2-oxo-1,2-dihydroquinolin-5-yl)ethyl]amino}methyl)-5-methoxyphenyl]amino}carbonyl)oxy]ethyl}biphenyl-2-yl)carbamate dihydrochloride [Example 49]” were 0.59 nM and 7.2 nM.
Take “trans-4-aminocyclohexyl(4-{3-[{[2-chloro-4-({[(2R)-2-hydroxy-2-(8-hydroxy-2-oxo-1,2-dihydroquinolin-5-yl)ethyl]amino}methyl)-5-methoxyphenoxy]acetyl}(methyl)-amino]propyl}biphenyl-2-yl)carbamate dihydrochloride [Example 47]”: the concentration for half-maximal inhibition (IC50) in assay [1] turned out to be 0.65 nM; in assay [2], 8.5 nM.
The matching figures for “trans-4-aminocyclohexyl(4-{4-[6-({[(2R)-2-hydroxy-2-(8-hydroxy-2-oxo-1,2-dihydroquinolin-5-yl)ethyl]amino}methyl)-5-methoxy-2-oxo-1,3-benzoxazol-3(2H)-yl]butyl}biphenyl-2-yl)carbamate dihydrofluoride [Example 39]”: 0.56 nM and 10 nM.
The matching figures for “trans-4-aminocyclohexyl(4-{5-[6-({[(2R)-2-hydroxy-2-(8-hydroxy-2-oxo-1,2-dihydroquinolin-5-yl)ethyl]amino}methyl)-2-oxo-1,3-benzoxazol-3(2H)-yl]pentyl}biphenyl-2-yl)carbamate dihydrofluoride [Example 29]”: 1.1 nM and 19 nM.
Regarding “trans-4-aminocyclohexyl(5-{4-[6-({[(2R)-2-hydroxy-2-(8-hydroxy-2-oxo-1,2-dihydroquinolin-5-yl)ethyl]amino}methyl)-2-oxo-1,3-benzoxazol-3(2H)-yl]butyl}biphenyl-2-yl)carbamate dihydrochloride [Example 34]”, the IC50 is 0.84 nM in assay [1] and 14 nM in assay [2].
The matching figures for “trans-4-aminocyclohexyl[4-(4-{[2-chloro-4-({[(2R)-2-hydroxy-2-(8-hydroxy-2-oxo-1,2-dihydroquinolin-5-yl)ethyl]amino}methyl)-5-methoxybenzoyl]amino}butyl)-biphenyl-2-yl]carbamate dihydrochloride [Example 60]”: 0.37 nM and 4.9 nM.
The matching figures for “trans-4-aminocyclohexyl[4-(4-{[4-(2-{[(2R)-2-hydroxy-2-(8-hydroxy-2-oxo-1,2-dihydroquinolin-5-yl)ethyl]amino}propyl)phenyl]amino}-4-oxobutyl)biphenyl-2-yl]carbamate dihydrochloride [Example 45]”: 1.3 nM and 4.7 nM.
The matching figures for “trans-4-aminocyclohexyl[4-(4-{[4-({[(2R)-2-hydroxy-2-(8-hydroxy-2-oxo-1,2-dihydroquinolin-5-yl)ethyl]amino}methyl)phenyl]amino}-4-oxobutyl)biphenyl-2-yl]carbamate dihydrofluoride [Example 23]”: 0.78 nM and 31 nM.
“trans-4-aminocyclohexyl[4-(4-{[6-({[(2R)-2-hydroxy-2-(8-hydroxy-2-oxo-1,2-dihydroquinolin-5-yl)ethyl]amino}methyl)pyridin-3-yl]amino}-4-oxobutyl)-biphenyl-2-yl]carbamate dihydrochloride [Example 57]”: the IC50 amounted to 0.86 nM in assay [1] and 7.4 nM in assay [2].
Taken in the same sequence, the figures for “trans-4-aminocyclohexyl[4-(4-{[trans-4-({[(2R)-2-hydroxy-2-(8-hydroxy-2-oxo-1,2-dihydroquinolin-5-yl)ethyl]amino}methyl)cyclohexyl]amino}-4-oxobutyl)biphenyl-2-yl]carbamate dihydrochloride [Example 44]” were 1.2 nM and 6.3 nM.
Turning to “trans-4-aminocyclohexyl[4-(5-{[4-({[(2R)-2-hydroxy-2-(8-hydroxy-2-oxo-1,2-dihydroquinolin-5-yl)ethyl]amino}methyl)phenyl]amino}-5-oxopentyl)biphenyl-2-yl]carbamate dihydrochloride [Example 37]”, the half-inhibitory concentration (IC50) in assay [1] is 1.2 nM; in assay [2], 18 nM.
